# Laboratory results published in ChEMBL document CHEMBL4732125, “Structures/cytotoxicity/selectivity relationship of natural steroidal saponins against GSCs and primary mechanism of tribulosaponin A” (Eur J Med Chem, 2021).
# Activity calls are given as the source filed them. The calls are words filed in the database; no cut-off is given here.
# Tests used:
# [1] = test system: GSC-3; assay: Cytotoxicity against human GSC3 cells assessed as inhibition of cell growth at 20 uM after 5 days; assay type: functional, cell-based; conditions: time 5.0 day
# [2] = test system: GSC-3; assay: Induction of apoptosis in human GSC-3 cells assessed as accumulation of ROS by measuring increase in NCF1 expression at 15 uM after 48 hrs by transcriptome analysis; assay type: functional, cell-based
# [3] = Induction of apoptosis in human GSC-3 cells assessed as viable cells at 7.5 uM incubated for 36 hrs by Annexin V-FITC/PI staining based flow cytometric analysis (reference value: 83.8%); assay type: functional; conditions: read-out: Activity
# [4] = test system: GSC-18; assay: Inhibition of colony formation in human GSC-18 cells assessed as decrease in number of tumor spheres at 15 uM after 2 weeks by crystal violet staining based assay; assay type: functional, cell-based
# [5] = test system: GSC-18; assay: Induction of apoptosis in human GSC-18 cells assessed as increase in cleaved caspase 3 at 15 uM after 48 hrs by immunofluorescence assay; assay type: functional, cell-based
# [6] = test system: GSC-3; assay: Induction of apoptosis in human GSC-3 cells assessed as cell shrank at 20 uM; assay type: functional, cell-based
# [7] = test system: GSC-3; assay: Inhibition of colony formation in human GSC-3 cells assessed as tumor spheres damage at 15 uM after 2 weeks by crystal violet staining based assay; assay type: functional, cell-based
# [8] = test system: GSC-18; assay: Induction of apoptosis in human GSC-18 cells assessed as ROS accumulation at 4 to 12 uM after 3 hrs in presence of NAC by DCFH-DA assay; assay type: functional, cell-based; conditions: dose 4-12 µM
# [9] = Induction of apoptosis in human GSC-3 cells assessed as early apoptotic cells at 20 uM incubated for 36 hrs by Annexin V-FITC/PI staining based flow cytometric analysis (reference value: 6.99%); assay type: functional
# [10] = test system: GSC-3; assay: Inhibition of colony formation in human GSC-3 cells assessed as decrease in number of tumor spheres at 15 uM after 2 weeks by crystal violet staining based assay; assay type: functional, cell-based
# [11] = test system: HUVEC; assay: Cytotoxicity against HUVEC assessed as inhibition of cell growth at 20 uM after 5 days; assay type: cell-based; conditions: human, 120 h, time 5 day
# [12] = test system: HEK-293T; assay: Induction of apoptosis in human 293T cells assessed as accumulation of ROS by measuring increase in NOX1 expression at 15 uM after 48 hrs by transcriptome analysis; assay type: functional, cell-based
# [13] = Cytotoxicity against human GSC18 cells assessed as reduction in cell viability after 72 hrs by MTS assay; assay type: functional, cell-based, GSC-18; conditions: GSC18, 72 h
# [14] = Induction of apoptosis in human GSC-3 cells assessed as necrotic cells at 20 uM incubated for 36 hrs by Annexin V-FITC/PI staining based flow cytometric analysis (reference value: 1.42%); assay type: functional
# [15] = Induction of apoptosis in human GSC-3 cells assessed as necrotic cells at 10 uM incubated for 36 hrs by Annexin V-FITC/PI staining based flow cytometric analysis (reference value: 1.42%); assay type: functional
# [16] = test system: GSC-3; assay: Induction of apoptosis in human GSC-3 cells assessed as ROS accumulation at 4 to 12 uM after 3 hrs in presence of NAC by DCFH-DA assay; assay type: functional, cell-based; conditions: dose 4-12 µM
# [17] = Cytotoxicity against human GSC3 cells assessed as reduction in cell viability after 72 hrs by MTS assay; assay type: functional, cell-based; conditions: GSC-3, 72 h
# [18] = test system: T98G; assay: Cytotoxicity against human T98G cells assessed as inhibition of cell growth at 20 uM after 5 days; assay type: cell-based; conditions: 120 h, time 5 day
# [19] = test system: U-87 MG; assay: Inhibition of colony formation in human U-87 MG cells assessed as decrease in number of tumor spheres at 15 uM by crystal violet staining based assay; assay type: functional, cell-based; conditions: U-87MG ATCC
# [20] = Induction of apoptosis in human GSC-3 cells assessed as viable cells at 20 uM incubated for 36 hrs by Annexin V-FITC/PI staining based flow cytometric analysis (reference value: 83.8%); assay type: functional; conditions: read-out: Activity
# [21] = test system: HUVEC; assay: Cytotoxicity against HUVEC assessed as reduction in cell viability after 72 hrs by MTS assay; assay type: cell-based, Homo sapiens; conditions: Homo sapiens, HUVEC
# [22] = Induction of apoptosis in human GSC-3 cells assessed as late apoptotic cells at 7.5 uM incubated for 36 hrs by Annexin V-FITC/PI staining based flow cytometric analysis (reference value: 7.79%); assay type: functional
# [23] = test system: HEK-293T; assay: Cytotoxicity against human 293T cells assessed as inhibition of cell growth at 20 uM after 5 days; assay type: cell-based; conditions: 120 h, time 5 day
# [24] = test system: GSC-18; assay: Cytotoxicity against human GSC18 cells assessed as inhibition of cell growth at 20 uM after 5 days; assay type: functional, cell-based; conditions: time 5.0 day
# [25] = test system: U-87 MG; assay: Cytotoxicity against human U-87 MG cells assessed as inhibition of cell growth at 20 uM after 5 days; assay type: cell-based; conditions: u-87mg atcc, 120 h, time 5 day
# [26] = test system: T98G; assay: Inhibition of colony formation in human […] cells assessed as decrease in number of tumor spheres at 15 uM by crystal violet staining based assay; assay type: functional, cell-based
# [27] = test system: U-87 MG; assay: Inhibition of colony formation in human U-87 MG cells assessed as tumor spheres damage at 15 uM by crystal violet staining based assay; assay type: functional, cell-based; conditions: U-87MG ATCC
# [28] = test system: T98G; assay: Inhibition of colony formation in human […] cells assessed as tumor spheres damage at 15 uM by crystal violet staining based assay; assay type: functional, cell-based
# [29] = test system: GSC-18; assay: Induction of apoptosis in human GSC-18 cells assessed as appearance of round and detached cells at 20 uM; assay type: functional, cell-based
# [30] = Induction of apoptosis in human GSC-3 cells assessed as early apoptotic cells at 10 uM incubated for 36 hrs by Annexin V-FITC/PI staining based flow cytometric analysis (reference value: 6.99%); assay type: functional
# [31] = test system: GSC-3; assay: Antiproliferative activity against human GSC-3 cells assessed as inhibition of cell growth at 15 uM after 48 hrs by BrdU incorporation assay; assay type: functional, cell-based
# [32] = Induction of apoptosis in human GSC-3 cells assessed as late apoptotic cells at 20 uM incubated for 36 hrs by Annexin V-FITC/PI staining based flow cytometric analysis (reference value: 7.79%); assay type: functional
# [33] = Induction of apoptosis in human GSC-3 cells assessed as late apoptotic cells at 10 uM incubated for 36 hrs by Annexin V-FITC/PI staining based flow cytometric analysis (reference value: 7.79%); assay type: functional
# [34] = test system: GSC-3; assay: Induction of apoptosis in human GSC-3 cells assessed as appearance of round and detached cells at 20 uM; assay type: functional, cell-based
# [35] = Induction of apoptosis in human GSC-3 cells assessed as viable cells at 10 uM incubated for 36 hrs by Annexin V-FITC/PI staining based flow cytometric analysis (reference value: 83.8%); assay type: functional; conditions: read-out: Activity
# [36] = test system: HEK-293T; assay: Cytotoxicity against human 293T cells assessed as reduction in cell viability after 72 hrs by MTS assay; assay type: cell-based; conditions: Homo sapiens, HEK-293T
# [37] = Induction of apoptosis in human GSC-3 cells assessed as necrotic cells at 7.5 uM incubated for 36 hrs by Annexin V-FITC/PI staining based flow cytometric analysis (reference value: 1.42%); assay type: functional
# [38] = test system: GSC-3; assay: Induction of apoptosis in human GSC-3 cells assessed as reduction in Bcl-2 protein expression at 7.5 to 20 uM after 48 hrs by Western blotting analysis; assay type: functional, cell-based; conditions: dose 7.5-20 µM
# [39] = test system: U-87 MG; assay: Cytotoxicity against human U-87 MG cells assessed as reduction in cell viability after 72 hrs by MTS assay; assay type: cell-based, U-87MG ATCC; conditions: Homo sapiens, U-87 MG
# [40] = test system: HEK-293T; assay: Induction of apoptosis in human 293T cells assessed as accumulation of ROS by measuring increase in NCF1 expression at 15 uM after 48 hrs by transcriptome analysis; assay type: functional, cell-based
# [41] = test system: GSC-18; assay: Inhibition of colony formation in human GSC-18 cells assessed as tumor spheres damage at 15 uM after 2 weeks by crystal violet staining based assay; assay type: functional, cell-based
# [42] = test system: GSC-18; assay: Antiproliferative activity against human GSC-18 cells assessed as inhibition of cell growth at 15 uM after 48 hrs by BrdU incorporation assay; assay type: functional, cell-based
# [43] = test system: GSC-18; assay: Induction of apoptosis in human GSC-18 cells assessed as cell shrank at 20 uM; assay type: functional, cell-based
# [44] = test system: GSC-3; assay: Induction of apoptosis in human GSC-3 cells assessed as increase in cleaved caspase 3 at 15 uM after 48 hrs by immunofluorescence assay; assay type: functional, cell-based
# [45] = test system: T98G; assay: Cytotoxicity against human T98G assessed as reduction in cell viability after 72 hrs by MTS assay; assay type: cell-based; conditions: Homo sapiens, T98G
# [46] = test system: GSC-3; assay: Induction of apoptosis in human GSC-3 cells assessed as accumulation of ROS by measuring increase in NOX1 expression at 15 uM after 48 hrs by transcriptome analysis; assay type: functional, cell-based
# [47] = Induction of apoptosis in human GSC-3 cells assessed as early apoptotic cells at 7.5 uM incubated for 36 hrs by Annexin V-FITC/PI staining based flow cytometric analysis (reference value: 6.99%); assay type: functional
structure (smiles),measurement,setting,value
CC1=C(CC[C@H](C)CO[C@@H]2O[C@H](CO)[C@@H](O)[C@H](O)[C@H]2O)O[C@H]2C[C@H]3[C@@H]4CC[C@@H]5C[C@@H](O[C@@H]6O[C@H](CO)[C@@H](O[C@@H]7O[C@@H](C)[C@H](O)[C@@H](O)[C@H]7O)[C@H](O)[C@H]6O[C@@H]6O[C@@H](C)[C@H](O)[C@@H](O)[C@H]6O)CC[C@]5(C)[C@H]4CC[C@]3(C)[C@@H]12,Activity,[1],Active
same,Activity,[2],Active
same,viability at 7.5 µM,[3],74.1%
same,inhibition,[4],Active
same,Activity,[5],Active
same,Activity,[6],Active
same,Activity,[7],Active
same,Activity,[8],inactive
same,Activity,[9],53.3%
same,inhibition,[10],Active
same,Activity,[11],Non-Toxic
same,Activity,[12],inactive
same,IC50,[13],6.6 µM
same,Activity,[14],0.56%
same,Activity,[15],0.69%
same,Activity,[16],inactive
same,IC50,[17],7 µM
same,Activity,[18],Non-Toxic
same,Activity,[19],Active
same,viability at 20 µM,[20],41.1%
same,IC50,[21],> 100 µM
same,Activity,[22],5.46%
same,Activity,[23],Non-Toxic
same,Activity,[24],Active
same,Activity,[25],Non-Toxic
same,inhibition,[26],Active
same,Activity,[27],Active
same,inhibition,[28],Active
same,Activity,[29],Active
same,Activity,[30],34.3%
same,Activity,[31],Active
same,Activity,[32],5.03%
same,Activity,[33],4.67%
same,Activity,[34],Active
same,viability at 10 µM,[35],60.4%
same,IC50,[36],> 100 µM
same,Activity,[37],1.01%
same,Activity,[38],Active
same,IC50,[39],> 100 µM
same,Activity,[40],inactive
same,Activity,[41],Active
same,Activity,[42],Active
same,Activity,[43],Active
same,Activity,[44],Active
same,IC50,[45],> 100 µM
same,Activity,[46],Active
same,Activity,[47],19.4%
